This test deals with oxygen-induced retinopathy model mouse. Kind of test: Oxygen-induced retinopathy model mouse (model of retinopathy of prematurity), retina flat mount analysis. The note with it: for abnormal angiogenesis region (%) / normal blood vessel region (%): average, p < 0.05 vs medium; for avascular region (result in words) / effect on abnormal angiogenesis (result in words): summary of Table 1 and Table 2, compared with medium group. The format is in vivo, C57BL/6N mouse. The method, then:
A model experiment of retinopathy of prematurity, which is an ophthalmic disease associated with hypoxia or ischemia, was performed based on a quantitative analysis method of oxygen-induced retinopathy model mouse (Experimental Eye Research 84 (2007) 529-536).
The date of birth of mouse was taken as day 0 of age. On day 7 of age, the mouse was placed in a high oxygen concentration breeding device together with the mother mouse and bred under high oxygen conditions (oxygen concentration 75±5%) up to day 12 of age. On day 12 of age, the high oxygen concentration breeding was terminated and the mouse was immediately placed under general breeding with intraperitoneal administration of the medium or test solution 1 twice a day for 7 days. On day 19 of age, retina flat mount was prepared from 4 mice out of the litter.
The mice were anesthetized by intraperitoneal administration of nembutal (1/10-fold diluted, 5 mg/mL) at 0.1 mL/mouse. The thoracic cavity was opened, and 1 mL of fluorescein isothiocyanate-dextran (FITC-dextran 20 mg/mL, FD2000S-1G, manufactured by SIGMA) was perfused from the heart.
After perfusion, the eyeball was immediately isolated, and fixed with 4% para-formaldehyde for 3-4 hr. The eyeball was anatomized to isolate retina, which as developed on a slide glass to prepare a flat mount. The whole retina area, avascular region and abnormal angiogenesis region were encircled with a stylus pen (CTE-640/S1, WACOM FVO) under a fluorescence microscope (ECLIPSE 80i, manufactured by Nikon), and measured using an analysis soft (WinROOF ver. 5.7.0, MITAMI Cor.), based on which the normal blood vessel region and abnormal angiogenesis region were calculated and compared.
normal blood vessel region (%): [{(whole retina area)−(area of avascular region)}/(whole retina area)]×100
abnormal angiogenesis region (%): {(abnormal angiogenesis region)/(whole retina area)}×100
In the same manner as in Experimental Example 1 except that test solution 2 was administered once a day, test solution 2 was intraperitoneally administered to model mouse for 7 days, and the normal blood vessel region and abnormal angiogenesis region thereof were measured.

Where [1] appears, read: test solution 1 (0.01 mg/mL) intraperitoneal twice a day for 7 days from day 12 of age, retina flat mount on day 19, 12 eyes.
The mark [2] stands for this setting: test solution 2 (0.01 mg/mL) intraperitoneal once a day for 7 days, 18 eyes.

Marks after values point to notes of the source that are not given here.

Turning to `CC(=O)Nc1nc(CCc2ccc(CC(=O)NN)cc2)cs1` [test substance 1, N-{4-[2-(4-hydrazinocarbonylmethylphenyl)ethyl]-1,3-thiazol-2-yl}acetamide], the “avascular region (result in words)” value was “a decrease in the avascular region” and the “effect on abnormal angiogenesis (result in words)” value is “a suppressive effect on abnormal angiogenesis”. Under setting [1], the “abnormal angiogenesis region (%)” value is on record as 7.04* % and the “normal blood vessel region (%)” value is 93.44* %.
`CC(=O)Nc1nc(CCc2ccc(CCNC(=N)N)cc2)cs1` [test substance 2, N-(4-{2-[4-(2-{[amino(imino)methyl]amino}ethyl)phenyl]ethyl}-1,3-thiazol-2-yl)acetamide]: the “avascular region (result in words)” value is on record as “a decrease in the avascular region” and the “effect on abnormal angiogenesis (result in words)” value was “a suppressive effect on abnormal angiogenesis”. Besides, under setting [2], the “abnormal angiogenesis region (%)” value is recorded as 6.79* % and the “normal blood vessel region (%)” value is recorded as 94.69* %.

Source of the values: patent US20100190834A1, “COMPOSITION FOR OPHTALMIC DISEASE ASSOCIATED WITH HYPOXIA OR ISCHEMIA” (R-TECH UENO, LTD., priority 2007, published 2010).
